Results on three molecules are retold here after patent publication EP4656049A1, “A METHOD OF CONTROLLING INSECT PESTS” (UPL Mauritius Limited, priority 2024, dated 2025).

Common to all, as to assay type: in vivo
In one series the test system is Halyomorpha halys Nymphs. Briefly: Lab trial in Petri dishes, suspension applied on nymphs + spray on beans. Particulars: 0.5 ml/L. The procedure: Composition used for insect control: Suspension of Beauveria bassiana CNCM I-2960 spores prepared in Tween 80. Total CFU count = 1 x 10^8 CFU/ml Trial method: Lab trial in Petri dishes, 10 replicates, 5 nymphs/replicate Suspension applied on nymphs + spray on beans Incubation in climatic room at +25°C Assessment of mortality percentage of Halyomorpha halys Nymphs at 10 DAA Comparative control: Acetamiprid Table 2: Efficacy of Beauveria bassiana CNCM I-2960 on Halyomorpha halys Nymphs

The next series concerns Halyomorpha halys eggs. Briefly: Lab trial in Petri dishes, suspension sprayed on eggs. Particulars: 0.5 ml/L. The procedure: Composition used for insect control: Suspension of Beauveria bassiana CNCM I-2960 spores prepared in Tween 80. Total CFU count = 1 x 10^6 CFU/ml, 1 x 10^7 CFU/ml and 1 x 10^8 CFU/ml Suspension of Beauveria bassiana CNCM I-2961 spores prepared in Tween 80. Total CFU count = 1 x 10^6 CFU/ml, 1 x 10^7 CFU/ml and 1 x 10^8 CFU/ml Trial method: Lab trial in Petri dishes, 5 replicates, 10 nymphs/replicate Suspension sprayed on eggs with equivalent volume of 1000 L/ha Incubation in climatic room at +25°C Assessment of mortality percentage of Halyomorpha halys Nymphs from treated eggs at 6 DAH, 9DAH, 13 DAH and 17 DAH. DAH = Days after hatching Comparative control: Acetamiprid Table 3: Efficacy of Beauveria bassiana CNCM-2961 and Beauveria bassiana CNCM I-2960 on Halyomorpha halys nymphs from treated eggs

Series [1] concerns Dysaphis plantaginea adults. Put plainly: Lab trial in Petri dishes, leaf disc dipped in suspension. Particulars: 0.14 kg/ha. The procedure: Composition used for insect control: Suspension of Beauveria bassiana CNCM I-2961 spores prepared in Tween 80. Total CFU count = 1.2 x 10^8 CFU/ml Trial method: Lab trial in Petri dishes, 10 replicates, 5 adults/replicate Leaf disc dipped in prepared suspension of treatment, let dried and set up on agar agar Incubation in climatic room at +21°C, dead adults removed and incubated for sporulation on cadaver: assessment at 17 DAA Assessment of mortality percentage of Dysaphis plantaginea adults at 8 DAA, 10 DAA DAA = Days after application Comparative control: Flonicamid Table 1: Efficacy of Beauveria bassiana CNCM I-2961 on Dysaphis plantaginea adults

In another series the test system is Empoasca vitis adults. Put plainly: Lab trial in Petri dishes, leaf dipped in suspension. Particulars: 75 ml/L. The procedure:
Composition used for insect control: Suspension of Beauveria bassiana CNCM I-2960 spores prepared in Tween 80. Total CFU count = 8.2 x 10^7 CFU/ml Suspension of Beauveria bassiana CNCM I-2961 spores prepared in Tween 80. Total CFU count = 1.1 x 10^8 CFU/ml Trial method: Lab trial in Petri dishes, 5 replicates, 10 nymphs/replicate Leaf dipped in prepared suspension of treatment, let dried and set up on agar agar Incubation in climatic room at +20 C, dead adults removed and incubated for sporulation on cadaver: assessment at 15 DAA Assessment of mortality percentage of Empoasca vitis adults at 7 DAA, 11DAA. Comparative control: Lambda cyhalothrin Table 4: Efficacy of Beauveria bassiana CNCM I-2961 and Beauveria bassiana CNCM I-2960 on Empoasca vitis adults

The test system of series [2] is Empoasca vitis L2/L3 larvae. The series is described as above. Particulars: 75 ml/L. The procedure: Composition used for insect control: Suspension of Beauveria bassiana CNCM I-2961 spores prepared in Tween 80. Total CFU count = 1.0 x 10^8 CFU/ml Trial method: Lab trial in Petri dishes, 10 replicates, 5 L2&L3 larvae /replicate Leaf dipped in prepared suspension of treatment, let dried and set up on agar agar Incubation in climatic room at +20°C, dead adults removed and incubated for sporulation on cadaver: assessment at 18 DAA Assessment of mortality percentage of Empoasca vitis L2/L3 larvae at 7 DAA, 10DAA. Comparative control: Lambda cyhalothrin Table 5: Efficacy of Beauveria bassiana CNCM I-2961 on Empoasca vitis L2/L3 larvae

For a further series, the system named is Bactrocera oleae adults. Put plainly: Lab trial in plastic containers, flies dipped in test solution. Particulars: 75 ml/L. The procedure:
Composition used for insect control: Suspension of Beauveria bassiana CNCM I-2960 spores prepared in Tween 80. Total CFU count = 9.5 x 10^7 CFU/ml Trial method: Lab trial in plastic containers, 5 replicates, 10 adults /replicate Flies dipped in test solution Incubation in climatic room at +25°C Assessment of mortality percentage of Bactrocera oleae adults at 10DAT. DAT = Days after Treatment Comparative control: Lambda-cyhalothrin Table 7: Efficacy of Beauveria bassiana CNCM I-2960 on Bactrocera oleae adults

In the case of `C/C(=N\C#N)N(C)Cc1ccc(Cl)nc1` [Acetamiprid], in the series on Halyomorpha halys Nymphs, the “Mortality percentage of Halyomorpha halys Nymphs at 10 DAA” value is on record as 100%. The “Mortality percentage of Halyomorpha halys nymphs from treated eggs at 6 DAH” value with Halyomorpha halys eggs (6 DAH) was 0%. Further, the “Mortality percentage of Halyomorpha halys nymphs from treated eggs at 9 DAH” value in the series on Halyomorpha halys eggs (9 DAH) came to 7%. In addition, the “Mortality percentage of Halyomorpha halys nymphs from treated eggs at 13 DAH” value with Halyomorpha halys eggs (13 DAH) is reported as 12%. Besides, the “Mortality percentage of Halyomorpha halys nymphs from treated eggs at 17 DAH” value in the series with Halyomorpha halys eggs (17 DAH) was determined as 22%.
Consider `N#CCNC(=O)c1cnccc1C(F)(F)F` [Flonicamid], for which the “Mortality percentage of Dysaphis plantaginea adults at 8 DAA” value in series [1] (8 DAA) was determined as 100%. Moreover, the “Mortality percentage of Dysaphis plantaginea adults at 10 DAA” value in series [1] (10 DAA) was found to be 100%.
On to `CC1(C)[C@H](C(=O)O[C@H](C#N)c2cccc(Oc3ccccc3)c2)[C@@H]1/C=C(\Cl)C(F)(F)F` (racemic) [Lambda cyhalothrin], for which the “Mortality percentage of Empoasca vitis adults at 7 DAA” value in the series on Empoasca vitis adults (7 DAA) was 83%. The “Mortality percentage of Empoasca vitis adults at 11 DAA” value with Empoasca vitis adults (11 DAA) amounted to 100%. Further, in series [2] (7 DAA), the “Mortality percentage of Empoasca vitis larvae at 7 DAA” value is listed as 65%. The “Mortality percentage of Empoasca vitis larvae at 10 DAA” value in series [2] (10 DAA) is 91%. Further, the “Mortality percentage of Bactrocera oleae adults at 10 DAA” value with Bactrocera oleae adults is 100%.
